{"source": "paper PMC3931943", "about": "“Extraction of tamoxifen and its metabolites from formalin-fixed, paraffin-embedded tissues: an innovative quantitation method using liquid chromatography and tandem mass spectrometry” (Cancer Chemotherapy and Pharmacology, 2014)", "key": {"[1]": {"set-up": "method as in PMID 17529893", "details": "frozen tissues (~2 mg), breast cancer patients, single dose of 20 mg TAM, samples 5 h postdrug administration; cited from earlier work"}, "[2]": {"experiment": "LC-MS/MS quantitation of TAM and its metabolites in archival FFPE breast tumor tissue of TAM-treated patients", "assay_type": "in vivo, human", "details": "for Mean concentration in FFPE tissue, tumor recurrent patients: breast tumor recurrence patients (n = 16), mean 26 months on TAM; for Mean concentration in FFPE tissue, tumor recurrent patients / Mean concentration in FFPE tissue, tumor non-recurrent patients: 20 mg/day TAM for at least 6 months, mean ± SEM, Z-isomers quantitated; for Mean concentration in FFPE tissue, tumor non-recurrent patients: patients without tumor recurrence (n = 8), mean 22 months on TAM", "procedure": "This study was approved by the Conjoint Health Research Ethics Board. FFPE tissue blocks were acquired from the archives of the pathology department at Foothills Medical Centre (Calgary, AB, Canada). Patients who had estrogen-receptor positive breast cancers diagnosed from 1990 to 2010 and treated with standard doses of TAM (20 mg/day of TAM for at least 6 months until time of biopsy with a treatment plan of 5 years on TAM) were selected for investigation. Patients were divided into two groups categorized as breast tumor recurrence (n = 16) and non-recurrence (n = 8).\nSix 15 μm paraffin sections were removed from each FFPE tissue block and placed in a 1.5 mL eppendorf tube. The tissue sections were then deparaffinized by incubating with 1 mL of xylene for 10 min at room temperature. About 20 μL of I.S. was added followed by centrifugation at 20,000g for 5 min. Since xylene washes most of the TAM and metabolites from the paraffin sections, the supernatant was collected and transferred to a clean eppendorf tube. This procedure was repeated, and the two supernatants were combined followed by an SPE clean-up. Sample purification was performed via an SPE column vacuum manifold (Supelco, PA, USA). Samples were loaded onto the SPE columns previously conditioned with 3 mL of methanol and acetonitrile followed by a wash with 2 mL of 10 % methanol. The SPE cartridges were dried thereafter for 2 min, and the analytes were eluted with 2 mL of 5 % 50 mM ammonium acetate in methanol. Eluates were evaporated to dryness under a stream of nitrogen at 55 °C using a heating module obtained from Thermo Scientific/Pierce (Asheville, NC, USA). The dry extracts were then resuspended in 100 μL of acetonitrile/0.2 % formic acid (50:50).\nLiquid chromatography was performed on a 1200 SL series LC system consisting of a binary pump, well-plate autosampler and thermostated column compartment (Agilent Technologies). Separation of TAM and metabolites was carried out using a Zorbax SB-C18 column (150 × 2.1 mm i.d., 3.5 μm particle size, Agilent Technologies) with a column temperature of 40 °C. Mobile phase consisted of 0.2 % formic acid and acetonitrile (60:40) at a flow rate of 0.2 mL/min with a gradient of 40–90 % of acetonitrile over 5 min. About 30 μL of the sample extract was injected onto the LC system. The total run time was 12 min including column equilibration.\nMS detection of the analytes was accomplished by a 6410 triple-quadrupole mass spectrometer equipped with an electrospray ion source operating in the positive ion mode (Agilent Technologies). High purity nitrogen was used as the drying gas at a flow rate of 11 L/min with a gas temperature of 350 °C, and the nebulizer pressure was set at 35 psi. The capillary voltage was set at 4,000 V for each compound; however, the fragmentor voltages and the collision energies were operated at different settings for optimization of each analyte (Table 1). Quantitation was performed in multiple-reaction monitoring (MRM) mode, and the transitions of the precursors to product ions are summarized in Table 1. Data acquisition and analysis were performed using Mass Hunter Software v.B.02.01 (Agilent Technologies)."}}}
{"smiles": "CC/C(=C(\\c1ccccc1)c1ccc(OCCNC)cc1)c1ccccc1", "note": "[DMT, N-desmethyl-tamoxifen]", "values": [{"measurement": "Average concentration in frozen tissue", "setting": "[1]", "result": 23.3, "unit": "ng/g"}, {"measurement": "Range of concentration in frozen tissue", "setting": "[1]", "result": "0 to 643", "unit": "ng/g"}, {"measurement": "Mean concentration in FFPE tissue, tumor recurrent patients", "setting": "[2]", "result": "324 ± 103", "unit": "ng/g"}, {"measurement": "Mean concentration in FFPE tissue, tumor non-recurrent patients", "setting": "[2]", "result": "1,256 ± 282.8 ng/g"}]}
{"smiles": "CC/C(=C(\\c1ccc(O)cc1)c1ccc(OCCNC)cc1)c1ccccc1", "note": "[Endoxifen, N-desmethyl-4-hydroxy-tamoxifen]", "values": [{"measurement": "Mean concentration in FFPE tissue, tumor recurrent patients", "setting": "[2]", "result": "19.2 ± 5.08", "unit": "ng/g"}, {"measurement": "Mean concentration in FFPE tissue, tumor non-recurrent patients", "setting": "[2]", "result": "94.6 ± 41.0", "unit": "ng/g"}, {"measurement": "Detection in FFPE tissue of tumor recurrent patients", "setting": "[2]; some of the tumor recurrent patients (data not shown), possibly below the detection limit of the assay", "result": "not found"}]}
{"smiles": "CC/C(=C(\\c1ccccc1)c1ccc(OCCN(C)C)cc1)c1ccccc1", "note": "[TAM, Tamoxifen]", "values": [{"measurement": "Average concentration in frozen tissue", "setting": "[1]", "result": 118, "unit": "ng/g"}, {"measurement": "Mean concentration in FFPE tissue, tumor recurrent patients", "setting": "[2]", "result": "122 ± 25.2", "unit": "ng/g"}, {"measurement": "Mean concentration in FFPE tissue, tumor non-recurrent patients", "setting": "[2]", "result": "147 ± 51.7", "unit": "ng/g"}]}
